From ChEMBL document CHEMBL1201862, “PubChem BioAssay data set” (2004)
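All cell lines were grown in 96-well plates and treated with compound for 48 hours. GI50: concentration for 50% inhibition of growth.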 Activity calls are given as the source filed them. Cut-off read from the data, not from the text of the source: active = GI50 up to about 1.1 µM and inactive = higher.

Experiments:
Test in all cases: NCI-60 cell line screen, 48 h
HL-60 = system: HL-60
SW-620 = system: SW-620
SF-295 = system: SF-295
HCT-116 = system: HCT-116
IGROV-1 = system: IGROV-1
A549 = system: A549
T47D = system: T47D
EKVX = system: EKVX
HT-29 = system: HT-29
NCI-H23 = system: NCI-H23
SNB-19 = system: SNB-19
UO-31 = system: UO-31
SK-MEL-28 = system: SK-MEL-28
HOP-92 = system: HOP-92
CCRF-CEM = system: CCRF-CEM
SNB-75 = system: SNB-75
K562 = system: K562
SF-539 = system: SF-539
OVCAR-8 = system: OVCAR-8
COLO 205 = system: COLO 205

Structure (SMILES): CC(=O)Oc1ccc2cc(Oc3cc(Cl)c(Cl)cc3Cl)c(=O)oc2c1
- GI50 (HL-60): 22.7 µM (inactive)
- GI50 (SW-620): 14.8 µM (inactive)
- GI50 (SF-295): 22.4 µM (inactive)
- GI50 (HCT-116): 14.9 µM (inactive)
- GI50 (IGROV-1): 11.2 µM (inactive)
- GI50 (A549): 16.4 µM (inactive)
- GI50 (T47D): 27.2 µM (inactive)
- GI50 (EKVX): 24.4 µM (inactive)
- GI50 (HT-29): 16.8 µM (inactive)
- GI50 (NCI-H23): 22.2 µM (inactive)
- GI50 (SNB-19): 29.6 µM (inactive)
- GI50 (UO-31): 13.1 µM (inactive)
- GI50 (SK-MEL-28): 26.2 µM (inactive)
- GI50 (HOP-92): 17.8 µM (inactive)
- GI50 (CCRF-CEM): 14 µM (inactive)
- GI50 (SNB-75): 19.6 µM (inactive)
- GI50 (K562): 13.2 µM (inactive)
- GI50 (SF-539): 16 µM (inactive)
- GI50 (OVCAR-8): 17.1 µM (inactive)

Structure (SMILES): O=NC1c2cccc3cccc(c23)C1N=O (configuration not stated)
- GI50 (HL-60): 2.5 µM (inactive)
- GI50 (SW-620): 2.45 µM (inactive)
- GI50 (SF-295): 9.31 µM (inactive)
- GI50 (HCT-116): 1.34 µM (inactive)
- GI50 (IGROV-1): 1.08 µM (active)
- GI50 (A549): 2.43 µM (inactive)
- GI50 (T47D): 17 µM (inactive)
- GI50 (COLO 205): 3.17 µM (inactive)
- GI50 (EKVX): 2.58 µM (inactive)
- GI50 (HT-29): 10.9 µM (inactive)
- GI50 (NCI-H23): 8.87 µM (inactive)
- GI50 (SNB-19): 11.8 µM (inactive)
- GI50 (UO-31): 2.76 µM (inactive)
- GI50 (HOP-92): 7.11 µM (inactive)
- GI50 (CCRF-CEM): 1.19 µM (inactive)
- GI50 (SNB-75): 9.79 µM (inactive)
- GI50 (K562): 2.65 µM (inactive)
- GI50 (SF-539): 12.8 µM (inactive)
- GI50 (OVCAR-8): 2.07 µM (inactive)

Structure (SMILES): COC(=O)[C@]12CCC(C)(C)C[C@H]1C1=CC[C@@H]3[C@@]4(C)CC[C@H](OC5OC(CO)C(O)C(O)C5OC5OC(CO)C(O)C(O)C5O)C(C)(C)[C@@H]4CC[C@@]3(C)[C@]1(C)CC2 (some centres not stated)
- GI50 (HL-60): 4.93 µM (inactive)
- GI50 (SW-620): 14.2 µM (inactive)
- GI50 (SF-295): 14.2 µM (inactive)
- GI50 (HCT-116): 5.41 µM (inactive)
- GI50 (IGROV-1): 14.4 µM (inactive)
- GI50 (A549): 8.83 µM (inactive)
- GI50 (T47D): 18.3 µM (inactive)
- GI50 (COLO 205): 3.09 µM (inactive)
- GI50 (EKVX): 11.9 µM (inactive)
- GI50 (HT-29): 10.4 µM (inactive)
- GI50 (NCI-H23): 7.08 µM (inactive)
- GI50 (SNB-19): 14.3 µM (inactive)
- GI50 (UO-31): 3.4 µM (inactive)
- GI50 (SK-MEL-28): 3.37 µM (inactive)
- GI50 (HOP-92): 3.91 µM (inactive)
- GI50 (CCRF-CEM): 15.7 µM (inactive)
- GI50 (SNB-75): 13.5 µM (inactive)
- GI50 (K562): 10.1 µM (inactive)
- GI50 (OVCAR-8): 15.9 µM (inactive)

Structure (SMILES): NCCCCNCCCNC(=O)CNC(=O)CC(O)C(N)CCCC(NC(=O)C(CN)NC(=O)C(O)CNC(=O)CC(N)c1ccc(O)cc1)C(=O)O (configuration not stated)
- GI50 (HL-60): > 10 µM (inactive)
- GI50 (SF-295): > 10 µM (inactive)
- GI50 (HCT-116): > 10 µM (inactive)
- GI50 (IGROV-1): > 10 µM (inactive)
- GI50 (A549): > 10 µM (inactive)
- GI50 (T47D): > 10 µM (inactive)
- GI50 (COLO 205): > 10 µM (inactive)
- GI50 (EKVX): > 10 µM (inactive)
- GI50 (HT-29): > 10 µM (inactive)
- GI50 (NCI-H23): > 10 µM (inactive)
- GI50 (SNB-19): > 10 µM (inactive)
- GI50 (UO-31): > 10 µM (inactive)
- GI50 (SK-MEL-28): > 10 µM (inactive)
- GI50 (HOP-92): > 10 µM (inactive)
- GI50 (CCRF-CEM): > 10 µM (inactive)
- GI50 (SNB-75): > 10 µM (inactive)
- GI50 (K562): > 10 µM (inactive)
- GI50 (SF-539): > 10 µM (inactive)
- GI50 (OVCAR-8): > 10 µM (inactive)

Structure (SMILES): COC(=O)CCCc1ccc2c(c1)CCC2
- GI50 (HL-60): > 100 µM (inactive)
- GI50 (SW-620): > 100 µM (inactive)
- GI50 (SF-295): > 100 µM (inactive)
- GI50 (HCT-116): > 100 µM (inactive)
- GI50 (IGROV-1): > 100 µM (inactive)
- GI50 (A549): > 100 µM (inactive)
- GI50 (T47D): > 100 µM (inactive)
- GI50 (COLO 205): > 100 µM (inactive)
- GI50 (NCI-H23): > 100 µM (inactive)
- GI50 (SNB-19): > 100 µM (inactive)
- GI50 (UO-31): > 100 µM (inactive)
- GI50 (SK-MEL-28): > 100 µM (inactive)
- GI50 (HOP-92): > 100 µM (inactive)
- GI50 (CCRF-CEM): > 100 µM (inactive)
- GI50 (SNB-75): > 100 µM (inactive)
- GI50 (SF-539): > 100 µM (inactive)
- GI50 (OVCAR-8): > 100 µM (inactive)

Structure (SMILES): Clc1ncnc2c1nc(C#Cc1ccccc1)n2Cc1ccccc1
- GI50 (HL-60): 7.83 µM (inactive)
- GI50 (SW-620): 4.09 µM (inactive)
- GI50 (SF-295): > 100 µM (inactive)
- GI50 (HCT-116): 34 µM (inactive)
- GI50 (A549): 84.9 µM (inactive)
- GI50 (T47D): 39.8 µM (inactive)
- GI50 (COLO 205): 16.5 µM (inactive)
- GI50 (EKVX): 13.3 µM (inactive)
- GI50 (HT-29): 24.3 µM (inactive)
- GI50 (NCI-H23): 16.6 µM (inactive)
- GI50 (SNB-19): 29.9 µM (inactive)
- GI50 (UO-31): 2.14 µM (inactive)
- GI50 (SK-MEL-28): 18.8 µM (inactive)
- GI50 (HOP-92): 27.1 µM (inactive)
- GI50 (CCRF-CEM): 3.78 µM (inactive)
- GI50 (SNB-75): 25.8 µM (inactive)
- GI50 (K562): 3.67 µM (inactive)
- GI50 (SF-539): 29.9 µM (inactive)
- GI50 (OVCAR-8): 12.7 µM (inactive)
